The record followed here is US10596172B2 (Celgene CAR LLC, priority 2008, dated 2020).

Where two headings read alike, the source gives them in different places.

The EC50 is the concentration giving half of the maximal effect.

In one assay the target is ITK (Homo sapiens (Human), UniProt Q08881). Briefly: Omnia assay for potency assessment against active forms of ITK kinase. In kind it is biochemical. The note with it: [ITK]=10 nM, [ATP]=25 μM, [Y6-Sox]=10 μM; read-out: ITK Inhibition. On the procedure:
[ITK]=10 nM, [ATP]=25 μM, [Y6-Sox]=10 μM (ATP KMapp=33 μM).

The target in assay [1] is T1, BTK (Homo sapiens (Human), UniProt Q06187). As to the kind of experiment: Omnia assay for potency assessment against BTK. To be noted: [BTK]=5 nm; read-out: BTK Inhibition. In kind it is biochemical. On the procedure: Omnia Assay Protocol for Potency Assessment Against BTK
The modified BTK-optimized reagent conditions for the above protocol are:
[BTK]=5 nm, [ATP]=40 mM, [Y5-Sox]=10 mM (ATP KMapp˜36 mM).

The target of another assay is EGFR-WT (Homo sapiens (Human), UniProt P00533). Briefly: Omnia assay for potency assessment against EGFR (WT). In kind it is biochemical. To be noted: wild-type EGFR; read-out: EGFR Wild Type Inhibition.
Another assay deals with JAK3 (Homo sapiens (Human), UniProt P52333). Briefly: Omnia assay for potency assessment against the active form of JAK3. In kind it is biochemical. To be noted: read-out: JAK3 Inhibition. Here is the method: Briefly, 10× stocks of EGFR-WT (PV3872) from Invitrogen and EGFR-T790M/L858R (40350) from BPS Bioscience, San Diego, Calif., 1.13×ATP (AS001A) and appropriate Tyr-Sox conjugated peptide substrates (KCZ1001) were prepared in 1× kinase reaction buffer consisting of 20 mM Tris, pH 7.5, 5 mM MgCl2, 1 mM EGTA, 5 mM β-glycerophosphate, 5% glycerol (10× stock, KB002A) and 0.2 mM DTT (DS001A).
The Omnia Assay Protocol for potency assessment against JAK3 was performed in a substantially similar manner as that described in Example 251 above except that the modified JAK3-optimized reagent conditions were:
[JAK3]=5 nM, [ATP]=5 μM, [Y12-Sox]=5 μM (ATP KMapp˜5 μM).

For assay [2], the target named is T1, BTK. As to the kind of experiment: Washout experiment with Ramos cells. In kind it is cell-based. To be noted: 100 nM compound 1 hour, then washout. Here is the method: Ramos cells were serum starved for one hour in RPMI media +1% glutamine at 37° C. After starvation, Ramos cells were treated with 100 nM compound diluted in serum free RPMI media for 1 hour. After compound treatment, the media was removed and cells were washed with compound-free media. Subsequently, Ramos cells were washed every 2 hours and resuspended in fresh compound-free media. Cells were collected at specified timepoints, treated with 1 ug anti-human IgM (Southern Biotech cat #2022-01) for 10 minutes on ice to induce BCR signaling and then washed in PBS. Ramos cells were then lysed in Cell Extraction Buffer (Invitrogen FNN0011) supplemented with Roche complete protease inhibitor tablets (Roche 11697498001) and phosphatase inhibitors (Roche 04 906 837 001) and 18 ug total protein lysate was loaded in each lane. Inhibition of BTK kinase activity was assayed by measuring its substrate (PLCγ2) phosphorylation by western blot with phospho-specific antibodies from Cell Signaling Technologies cat #3871. The results of this experiment with compounds I-2, I-4 and I-7 are depicted in FIGS. 1, 2 and 3.

The subject of assay [3] is B cell lymphoma cell lines. As to the kind of experiment: B cell lymphoma proliferation assay. In kind it is cell-based.
The target in another assay is TEC kinase (Homo sapiens (Human), UniProt P42680). As to the kind of experiment: Mass spectrometry for TEC kinase (tryptic digest). In kind it is binding. The note with it: 3 hrs at 10x excess. Here is the method:
TEC kinase (45 pmols; Invitrogen) was incubated with (I-2) (450 pmols) for 3 hrs at 10× excess prior to tryptic digestion. Iodoacetamide was used as the alkylating agent after compound incubation. […] For tryptic digests a 5 ul aliquot (7.5 pmols) was diluted with 15 ul of 0.1% TFA prior to micro C18 Zip Tipping directly onto the MALDI target using alpha cyano-4-hydroxy cinnamic acid as the matrix (5 mg/ml in 0.1% TFA:Acetonitrile 50:50).
As depicted in FIG. 6, the expected peptide ([…]) to be modified was immediately evident after reaction with I-2 (MI mass of 359.17 Da) at MH+ of 1294.72. The peptide was also quite evident in the control sample as modified by Iodacetamide at MH+ of 992.56. […] There was no evidence of other modified peptides.
For tryptic digests the instrument was set in Reflectron mode with a pulsed extraction setting of 2200. Calibration was done using the Laser Biolabs Pep Mix standard ([…], 1296.69, 1672.92, 2093.09, 2465.20). For CID/PSD analysis the peptide was selected using cursors to set ion gate timing and fragmentation occurred at a laser power about 20% higher and He was used as the collision gas for CID. Calibration for fragments was done using the P14R fragmentation calibration for the Curved field Reflectron.
TEC kinase (45 pmols; Invitrogen) was incubated with (I-4) (450 pmols) for 3 hrs at 10× excess prior to tryptic digestion. Iodoacetamide was used as the alkylating agent after compound incubation. […] For tryptic digests a 5 ul aliquot (7.5 pmols) was diluted with 15 ul of 0.1% TFA prior to micro C18 Zip Tipping directly onto the MALDI target using alpha cyano-4-hydroxy cinnamic acid as the matrix (5 mg/ml in 0.1% TFA:Acetonitrile 50:50).
As depicted in FIG. 7, the expected peptide ([…]) to be modified was immediately evident at MH+ of 1355.72. This is the mass to be expected when compound I-4, with an adduct mass of 420.21, is added to the peptide mass of 935.51. The peptide was also quite evident in the control sample as modified by Iodacetamide at MH^+ of 992.56. […] There was no evidence of other modified peptides. […]

For a further assay, the system named is Human naïve B cells. Briefly: Human primary B cell proliferation assay. The note with it: 5 μg/ml α-IgM 72 hours, 3H-thymidine incorporation. In kind it is cell-based. Here is the method: Human naïve B cells were purified from 100 mL whole blood using a MACS purification kit designed to isolate CD19+, IgD+ cells by negative selection. Purified naïve B cells were resuspended in RPMI complete and stimulated with 5 μg/ml α-IgM for 72 hours. ^3H-Thymidine was included in the culture media for the final 16 h, cells were harvested and ^3H incorporation measured. Inhibition of B cell proliferation correlates with inhibition of BTK substrate phosphorylation after α-IgM stimulation.

In assay [4] the target is BTK (Rattus norvegicus, UniProt Q5S255). Briefly: BTK occupancy from in vivo samples by ELISA. The note with it: po, rats dosed orally 30 mg/kg. On the procedure: All samples were prepared with equal concentrations of Biorad lysis buffer (Hercules, Calif., USA), 0.5% bovine serum albumin in PBS with 0.05% Tween-20 to give a final concentration of 1 μM I-215. Samples were incubated in a mixing plate for 1 hr at room temperature while shaking to allow probe compound I-215 to bind to free BTK. After incubation with I-215, samples were added to a washed, streptavidin-coated ELISA plate (Pierce, Rockford, Ill., USA) and incubated for 1 hr at room temperature while shaking. The plate was then washed with PBS containing 0.05% Tween-20 using an automatic plate washer. Anti-BTK antibody was prepared at 1:1000 dilution in 0.5% BSA in PBS (0.05% Tween-20) and added to the ELISA plate. The plate was incubated for 1 hr at room temperature while shaking. The plate was washed as described above and the secondary HRP antibody was prepared at 1:5000 dilution in 0.5% BSA in PBS (0.05% Tween-20). The plate was incubated and washed as described above. TMB was added to the plate, and OD650 was monitored until reaching 1 OD unit. The reaction was then stopped with addition of H2SO4. The plate was analyzed using Gen 5 software, and a 4 Parameter Logistic curve was employed to quantitate samples. Recombinant BTK (Invitrogen, Carlsbad, Calif., USA) was used for the standard curve.
Rats were dosed orally with 30 mg/kg of compound and spleens were harvested either 2 or 24 hours after compound treatment. Rat spleens were disrupted between two microscope slides coated with frosted glass to recover single cell suspensions. Red blood cells were lysed by incubating with RBC lysis buffer (Boston BioProducts) for 2 minutes at room temperature, the cells were then resuspended in RPMI complete media and pelleted by centrifugation. Rat B cells were isolated by positive selection with B220+ antibody-magnetic bead conjugates, purified by MACS column and lysed in Bio-Rad lysis buffer at a concentration of 10 million cells/100 μl. Lysates were analyzed employing the biotinylated probe compound I-215 in an ELISA protocol as described in detail in Example 278.

The target of assay [5] is T1, BTK. As to the kind of experiment: Mass spectrometry for BTK (covalent modification of intact protein). Format: binding. The note with it: 1 hr, 10x fold excess of compound. Here is the method:
Intact BTK was incubated for 1 hr at a 10× fold excess of I-7 to protein. Aliquots (2 μl) of the samples were diluted with 10 μl of 0.1% TFA prior to micro C4 ZipTipping directly onto the MALDI target using Sinapinic acid as the desorption matrix (10 mg/ml in 0.1% TFA:Acetonitrile 20:80).

Where [6] appears, read: Homo sapiens, DOHH-2, DOHH2 B cell lymphoma cell line, read-out: EC50 (μM) DOHH2.
[7] abbreviates: DHL4 B cell lymphoma cell line, read-out: EC50 (μM) DHL4.
[8] abbreviates: Homo sapiens, WSUDLCL2, WSU-DLCL2 B cell lymphoma cell line, read-out: EC50 (μM) WSU-DLCL2.

JAK3, sequence (P52333 whole entry): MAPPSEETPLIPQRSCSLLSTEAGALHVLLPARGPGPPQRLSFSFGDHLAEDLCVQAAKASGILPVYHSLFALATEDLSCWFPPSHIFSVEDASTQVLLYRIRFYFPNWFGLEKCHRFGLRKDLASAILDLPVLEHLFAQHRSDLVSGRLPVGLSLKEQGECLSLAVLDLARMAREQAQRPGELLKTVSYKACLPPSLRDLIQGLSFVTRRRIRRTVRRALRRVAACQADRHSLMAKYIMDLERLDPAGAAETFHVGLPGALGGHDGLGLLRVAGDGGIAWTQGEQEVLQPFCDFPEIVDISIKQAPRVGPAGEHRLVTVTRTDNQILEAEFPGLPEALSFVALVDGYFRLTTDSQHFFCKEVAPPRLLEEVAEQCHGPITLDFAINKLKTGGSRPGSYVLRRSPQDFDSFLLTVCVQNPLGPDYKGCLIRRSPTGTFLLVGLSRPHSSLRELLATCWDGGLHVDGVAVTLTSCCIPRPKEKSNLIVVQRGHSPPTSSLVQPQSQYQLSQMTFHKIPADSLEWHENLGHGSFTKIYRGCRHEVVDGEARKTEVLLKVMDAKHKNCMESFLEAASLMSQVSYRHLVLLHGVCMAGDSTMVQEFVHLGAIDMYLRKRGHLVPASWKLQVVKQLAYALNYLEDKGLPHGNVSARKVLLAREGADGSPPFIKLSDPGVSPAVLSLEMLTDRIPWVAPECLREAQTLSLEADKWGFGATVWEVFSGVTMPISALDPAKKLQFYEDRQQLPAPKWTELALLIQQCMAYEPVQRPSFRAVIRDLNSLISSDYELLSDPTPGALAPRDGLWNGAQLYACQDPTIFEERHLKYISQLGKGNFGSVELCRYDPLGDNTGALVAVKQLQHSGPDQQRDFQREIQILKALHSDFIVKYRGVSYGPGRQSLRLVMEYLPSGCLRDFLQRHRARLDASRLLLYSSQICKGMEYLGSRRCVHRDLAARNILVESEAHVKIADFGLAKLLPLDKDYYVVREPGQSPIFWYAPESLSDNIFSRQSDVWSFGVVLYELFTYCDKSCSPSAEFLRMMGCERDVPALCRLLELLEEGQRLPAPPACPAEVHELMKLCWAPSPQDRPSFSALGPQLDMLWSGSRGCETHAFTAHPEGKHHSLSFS
T1 sequence (Q06187 whole entry): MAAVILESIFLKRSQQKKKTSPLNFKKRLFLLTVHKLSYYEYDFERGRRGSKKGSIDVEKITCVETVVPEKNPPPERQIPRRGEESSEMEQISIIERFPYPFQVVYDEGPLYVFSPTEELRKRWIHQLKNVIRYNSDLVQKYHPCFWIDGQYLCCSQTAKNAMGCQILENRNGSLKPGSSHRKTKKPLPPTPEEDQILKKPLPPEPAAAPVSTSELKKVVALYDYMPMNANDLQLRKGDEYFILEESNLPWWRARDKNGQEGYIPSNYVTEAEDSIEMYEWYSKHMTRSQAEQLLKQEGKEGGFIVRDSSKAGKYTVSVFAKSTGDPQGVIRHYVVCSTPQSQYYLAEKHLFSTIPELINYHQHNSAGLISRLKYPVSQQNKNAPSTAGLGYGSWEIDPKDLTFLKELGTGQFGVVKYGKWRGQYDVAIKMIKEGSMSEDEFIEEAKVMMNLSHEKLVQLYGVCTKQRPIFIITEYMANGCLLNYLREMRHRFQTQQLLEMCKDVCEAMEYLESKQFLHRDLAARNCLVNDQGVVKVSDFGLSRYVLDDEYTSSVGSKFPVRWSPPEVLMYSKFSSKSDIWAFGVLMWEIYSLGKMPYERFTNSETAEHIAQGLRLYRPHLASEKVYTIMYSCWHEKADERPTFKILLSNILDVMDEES
BTK (Rattus norvegicus, UniProt Q5S255), sequence (Q5S255 1-660): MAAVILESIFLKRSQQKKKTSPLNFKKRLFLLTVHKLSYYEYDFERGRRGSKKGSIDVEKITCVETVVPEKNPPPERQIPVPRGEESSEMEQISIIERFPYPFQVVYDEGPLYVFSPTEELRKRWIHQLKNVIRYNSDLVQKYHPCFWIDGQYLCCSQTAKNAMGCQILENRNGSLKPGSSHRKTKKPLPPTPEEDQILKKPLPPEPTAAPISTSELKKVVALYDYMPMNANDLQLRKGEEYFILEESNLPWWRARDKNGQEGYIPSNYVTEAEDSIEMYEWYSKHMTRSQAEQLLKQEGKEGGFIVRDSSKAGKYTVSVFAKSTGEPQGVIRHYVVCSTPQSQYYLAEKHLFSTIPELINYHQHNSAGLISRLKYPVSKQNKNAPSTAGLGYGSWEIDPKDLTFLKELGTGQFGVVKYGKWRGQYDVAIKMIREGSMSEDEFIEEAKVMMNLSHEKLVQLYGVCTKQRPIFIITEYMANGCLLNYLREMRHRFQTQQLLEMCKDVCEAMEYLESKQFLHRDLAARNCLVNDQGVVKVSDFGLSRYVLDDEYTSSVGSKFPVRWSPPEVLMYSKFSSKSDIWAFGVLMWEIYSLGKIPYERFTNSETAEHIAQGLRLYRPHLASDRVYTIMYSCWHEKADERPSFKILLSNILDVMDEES
TEC kinase, sequence (P42680 whole entry): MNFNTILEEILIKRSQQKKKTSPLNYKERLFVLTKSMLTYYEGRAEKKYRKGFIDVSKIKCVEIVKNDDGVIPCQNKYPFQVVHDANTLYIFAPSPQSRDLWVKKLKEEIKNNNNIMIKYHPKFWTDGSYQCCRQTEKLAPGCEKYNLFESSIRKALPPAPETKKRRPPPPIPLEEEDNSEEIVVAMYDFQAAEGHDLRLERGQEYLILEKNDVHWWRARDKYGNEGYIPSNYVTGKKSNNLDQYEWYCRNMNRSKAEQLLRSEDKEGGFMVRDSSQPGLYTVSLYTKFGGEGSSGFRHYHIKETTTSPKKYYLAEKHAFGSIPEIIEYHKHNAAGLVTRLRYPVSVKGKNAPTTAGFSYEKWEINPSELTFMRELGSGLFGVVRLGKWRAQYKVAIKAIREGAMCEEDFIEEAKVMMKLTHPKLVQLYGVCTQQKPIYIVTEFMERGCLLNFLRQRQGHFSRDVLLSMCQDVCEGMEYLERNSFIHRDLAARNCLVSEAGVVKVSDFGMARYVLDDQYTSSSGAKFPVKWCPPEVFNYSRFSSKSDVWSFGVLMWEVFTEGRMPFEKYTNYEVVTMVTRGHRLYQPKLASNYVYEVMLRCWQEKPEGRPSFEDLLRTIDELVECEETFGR
ITK, sequence (Q08881 whole entry): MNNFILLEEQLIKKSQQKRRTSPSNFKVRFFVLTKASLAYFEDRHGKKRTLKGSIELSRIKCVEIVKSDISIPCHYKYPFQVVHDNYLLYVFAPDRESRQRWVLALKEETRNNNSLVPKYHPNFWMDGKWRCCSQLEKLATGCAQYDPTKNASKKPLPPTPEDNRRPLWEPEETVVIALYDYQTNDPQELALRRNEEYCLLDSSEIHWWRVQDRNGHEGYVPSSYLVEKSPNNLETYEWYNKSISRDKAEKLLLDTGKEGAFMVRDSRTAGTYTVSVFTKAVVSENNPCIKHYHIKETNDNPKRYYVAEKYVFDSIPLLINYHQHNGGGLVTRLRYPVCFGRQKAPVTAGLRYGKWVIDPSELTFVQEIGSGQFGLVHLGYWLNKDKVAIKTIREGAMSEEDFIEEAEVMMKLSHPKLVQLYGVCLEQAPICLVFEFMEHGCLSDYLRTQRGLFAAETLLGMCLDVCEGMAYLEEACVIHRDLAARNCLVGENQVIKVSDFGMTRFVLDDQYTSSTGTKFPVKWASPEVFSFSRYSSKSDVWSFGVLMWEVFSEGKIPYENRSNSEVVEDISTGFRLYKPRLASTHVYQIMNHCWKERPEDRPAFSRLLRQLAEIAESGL

In the case of “4-(3-acrylamidophenoxy)-2-(3-methoxyphenylamino)-pyrimidine-5-carboxylic acid phenylamide [Compound I-200]”, the IC50 is greater than 10000 nM at ITK, less than 10 nM on BTK [1] and less than 10 nM at EGFR-WT.

As to `C=CC(=O)Nc1cccc(Nc2ncc(C)c(Nc3cccc(C)c3)n2)c1` [Compound I-2, N-(3-(5-methyl-4-(m-tolylamino)pyrimidin-2-ylamino)phenyl)acrylamide], the IC50 on JAK3 is less than 10 nM. In addition, at BTK [2], the “BTK Inhibition Type” value is listed as “irreversible”. The half-maximal effective concentration (EC50) in assay [3] (setting [6]) was 0.1 to 1 µM. Moreover, on TEC kinase, the “covalent modification of TEC kinase peptide GCLLNFLR (Cys449) by mass spectrometry” value is reported as “reaction was complete”.

Regarding `C=CC(=O)N1CCC[C@@H](Oc2nc(Nc3cccc(OC)c3)ncc2F)C1` [Compound I-190, (R)-1-(3-(5-fluoro-2-(3-methoxyphenylamino)pyrimidin-4-yloxy)piperidin-1-yl)prop-2-en-1-one], the EC50 is 10 to 100 nM with Human naïve B cells and greater than 10 µM in [3] (setting [6]). Further, the receptor occupancy at 30 mg/kg came to 18% at BTK [4] (spleen B cells harvested 2 hours after treatment, read-out: % BTK Occupancy 2 h) and 13% on BTK [4] (spleen B cells harvested 24 hours after treatment, read-out: % BTK Occupancy 24 h).

Take `C=CC(=O)N1CCC[C@@H](Nc2nc(Nc3cccc(OC)c3)ncc2F)C1` [Compound I-195, (R)-1-(3-(5-fluoro-2-(3-methoxyphenylamino)pyrimidin-4-ylamino)piperidin-1-yl)prop-2-en-1-one]: the “covalent modification of BTK by mass spectrometry” value (“covalent modification of BTK” for short) on BTK [5] is “completely modify”. Further, the results for the 50% effective concentration (EC50) in [3] (setting [7]), in assay [3] (setting [6]) and in [3] (setting [8]) were greater than 10 µM, 1 to 10 µM and greater than 10 µM, respectively.

In the case of `CC(C)=CC(=O)c1cccc(Nc2nc(Nc3cccc(OCCN(C)C)c3)ncc2F)c1` [Compound I-207], on BTK [5], the “covalent modification of BTK” value is given as “completely modify”. Also, the half-maximal effective concentration (EC50) is 0.1 to 1 µM in [3] (setting [6]) and 1 to 10 µM in [3] (setting [8]).

Turning to `C=CC(=O)Nc1cccc(Nc2nc(Nc3cccc(OC(F)(F)F)c3)ncc2F)c1` [Compound I-244, N-(3-(5-fluoro-2-(3-(trifluoromethoxy)phenylamino)pyrimidin-4-ylamino)phenyl)acrylamide], on JAK3, the IC50 is less than 10 nM. In addition, at BTK [5], the “covalent modification of BTK” value is on record as “completely modify”. Further, the EC50 lay in the range of 1 to 10 µM in assay [3] (setting [7]), 0.1 to 1 µM in assay [3] (setting [6]) and 1 to 10 µM in [3] (setting [8]).

In the assay with Human naïve B cells, `CCC(=O)Nc1cccc(Nc2nc(Nc3ccccc3)ncc2C)c1` [I^R-7, N-(3-(5-methyl-2-(phenylamino)pyrimidin-4-ylamino)phenyl) propionamide] returned a half-maximal effective concentration (EC50) greater than 1000 nM. At JAK3, the IC50 lay in the range of 1000 to 10000 nM.
